Molecules are shown by their SMILES. Entries after “also recorded” stand apart in the source; their conditions may differ.

One compound from patent US20260306463A1, “SIK INHIBITORS TO TREAT CHRONIC KIDNEY DISEASE” (The General Hospital Corporation, priority 2023, published 2026) can be followed below.

The test system of the experiment is kidney cell clusters. As to the kind of experiment: single cell RNA-sequencing of dissociated kidneys, adenine CKD mice. To be noted: SK-124 vs vehicle, adenine diet. In kind it is in vivo, mouse. As to the method: FIGS. 6A-6F. The effects of SK-124 treatment at the transcriptomic level in adenine-induced mouse chronic kidney disease. RNA-seq was performed on whole kidney RNA samples (n=7/group) from FIG. 1. Volcano plot show gene regulated (>2-fold change, p(adj)<0.05) by CKD (versus control diet, A) or in CKD by SK-124 (versus vehicle control, B). In Volcano plot, representative fibrosis markers (Col3a1, Vim, Serpinel) and proximal tubule integrity (Lrp2. Atplai, and Hnf4a) are shown. Scatterplot (C) and heatmap (D) showing integration of individual RNA-seq comparisons. […] (E) Single cell RNA-sequencing was performed on dissociated kidneys from adenine diet fed mice treated with vehicle or SK-124 (n=4/group). […] (F) Relative cellularity of each annotated cluster is shown in pie chart format for adenine+vehicle (CKD-Veh) or adenine+SK-124 (CKD-SK-124) mice.
To perform single cell RNA sequencing, mouse kidneys were harvested and immediately dissociated in liberase TH (Millipore Sigma, 05401135001) at 37 degrees for 1 hour at 600 rpm. After removing red blood cells using red blood cell lysis buffer (Sigma, R7757), the cells were further dissociated in Accumax (Stemcell Technologies, 7921) and submitted to MGH Department of Molecular Biology for gel beads in emulsion (GEM) formation and subsequent single cell RNA sequencing using the 10× Genomics Chromium 3′ droplet-based sequencing platform. The CellRanger toolkit (v6.0.2) by 10× Genomics was used to 1) align the sequencing reads to the mouse reference transcriptome (mm10). 2) quantify gene expression, resulting in gene-by-cell UMI count matrices, and 3) aggregate all samples into a single feature barcode matrix containing all the data for downstream analysis. All single cell data analysis was performed in the R software environment for statistical computing and graphics using the package Seurat.

With `CCc1nnc(-c2c(OC)cc(-c3cnc4cc(-c5cnn(C)c5)ccn34)cc2OC)o1` [SK-124, 2-[2,6-Dimethoxy-4-[7-(1-methylpyrazol-4-yl)imidazo[1,2-a]pyridin-3-yl]phenyl]-5-ethyl-1,3,4-oxadiazole], the fibroblast cluster cellularity entry is “reduces fibroblast cluster cellularity”; the “injury markers (failed repair proximal tubule cells, fibroblasts, and myofibroblasts)” value is “reduced injury markers”; the “numbers of healthy proximal tubule (epithelial) cells” value is on record as “increases numbers of healthy epithelial cells; also recorded: increased numbers of healthy proximal tubule cells”.
